The text below walks through data of patent publication US5885834A, “Antisense oligodeoxynucleotide against phosphodiesterase” (priority 1997, dated 1999).

Where two headings read alike, the source gives them in different places.

Type in all cases: cell-based, human
One assay has as its system RPMI 8392 cells. As to the kind of experiment: Apoptosis by endonuclease-digested DNA (DNA laddering) on agarose gels. To be noted: Homo sapiens, read-out: Concentrations at which apoptosis was induced. Here is the method: The preferred method for testing the ability of AS ODN to induce apoptosis as determined by detection of endonuclease digested DNA on agarose gels employs the following sequence:
(2) Cells are grown to ≈10^6 /ml, collected by centrifugation for 5 min. at 300×g (1000 rpm in an IEC Model K centrifuge), resuspended in growth medium to 10^6 cells/ml, and placed in a 24 well tissue culture plate at 1 ml/well. The cell volumes are kept to a minimum (i.e., -1 ml), in order to reduce the amount of ODN needed. The fetal bovine serum used in the growth medium for this step is heat-inactivated at 65° C. for 1 hr. to minimize serum nuclease activity.
(4) Cells are then incubated for varying times, usually 1-3 days, following which the DNA is isolated.
The supernatant is aspirated down to ≈50 μl of volume and the cell pellet is resuspended in this remaining small volume.
(6) About 400 μl of cold cell lysis buffer (50 mM Tris-HCl, pH 7.5, 10 mM EDTA, 1% Triton X-100) is then added.
(9) The upper, aqueous phase is transferred to a fresh microfuge tube and 250 μl of phenol and 250 μl of chloroform are added, the mixture gently vortexed for 5 sec., and centrifuged at 16,650×g for 5 min.
(10) The upper, aqueous phase is again transferred to a fresh microfuge tube and 500 μl of chloroform is added, followed by gentle vortexing and centrifugation at 16,650×g for 3 min.
(11) The upper, aqueous phase is again transferred to a fresh microfuge tube, 3M sodium acetate (pH 5.2) is added to a final concentration of 0.3M, and 2.5 volumes of ice cold 100% ethanol is added. The solution is left overnight at -20° C. to precipitate the DNA.
(12) The DNA is collected by centrifugation at 16,650×g for 15 min., the supernatant decanted, and the pellet air dried for ≈30-60 min. at room temperature. The DNA pellet is then dissolved in 50 μl of pH 8.0 TE buffer at room temperature overnight.
(13) One μl of a 4 mg/ml solution of DNase-free RNase A is then added to the DNA and incubation is carried out at 37° C. for 30 min. This step is necessary to prevent contaminating RNA from obscuring the gel.
(14) Thirty μl of DNA solution is then mixed with 6 μl of 6× loading buffer and run on a 2% agarose gel, containing 0.5 μg/ml ethidium bromide, in 0.5× TBE buffer (45 mM Tris-borate, 1 mM EDTA, pH 8.0) at ≈50 V for ≈1.5 hr. The 6× loading buffer used is 0.25% xylene cyanol and 30% glycerol. The use of bromophenol blue is omitted for this analysis because it tends to obscure the visualization of the DNA ladder pattern.
(15) The gel is then visualized and photographed under UV light.
The effect of pharmacological inhibition of each of these PDE activities on induction of apoptosis in RPMI 8392 cells was tested, using the appearance of oligonucleosome length fragments of endonuclease digested DNA as a measure of apoptosis.
Markers (lane 1 in both gels) are 1 kb DNA ladder size markers from GIBCO/BRL.
Cells (10^6) were collected by centrifugation at 670×g for 5 min. The cell pellets were rinsed once with 0.2M dibasic sodium phosphate and lysed in 300 μl of lysis buffer (50 mM Tris/HCl pH 7.5, 10 mM EDTA, 1% V/V Triton X-100) for 20 min on ice. Proteinase K was added to 0.5 mg/ml and DNase-free RNase was added to 50 μg/ml and the extract incubated at 37° C. for 1 hr. DNA was then extracted in phenol/chloroform (1:1) and chloroform (1:1) and precipitated in 2.5 volumes of ethanol. The extracted DNA was electrophoresed on 2% agarose gels, the gels stained with 0.5 μg/ml ethidium bromide and photographed under UV light.
Experiments were conducted to determine if inhibition of the expression of the gene for PDE1B1 could induce apoptosis.

Another assay has as its system PDE4 mRNA in HPBL. Nature of the assay: RT-PCR amplification of transcripts in HPBL. Here is the method:
(§1) HPBL were purified from 30-60 ml of blood obtained from normal donors by defribrination with glass beads to remove platelets, incubated with tetracarbonyl iron to minimize monocyte contamination and centrifuged on Ficoll-Hypaque density gradients to achieve cell separation. […] For this stimulation, cells were placed in 25 cm^2 flasks in a total volume of 10 ml/flask.
(§2) First strand cDNA was synthesized from the RNA using a Superscript Preamplification System from GIBCO/BRL. […] To this was added 10 mM Tris/HCl pH 8.4, 50 mM KCl, 2.5 mM MgCl2, 10 mM DTT, 500 μM each of dGTP, dATP, dCTP and dTTP in a total volume of 20 μl, and the resultant mix was incubated at room temperature for 5 min. Superscript II reverse transcriptase (2 U) was then added and incubation continued at 42° C. for 50 min. at 70° C. for 15 min. RNase H (2 U) was then added and incubation carried out for 20 min. at 37° C. PCR amplification was carried out in a total volume of 50 μl using 2 μl of cDNA, 20 mM Tris/HCl pH 8.4, 50 mM KCl, 1.5 mM MgCl2, 200 μM each of dGTP, dATP, dCTP and dTTP and 0.4 μM of sense and antisense primers specific for different isogenes of human PDE4, human β-actin and human PDE1B1, as described hereinafter. The PCR reaction mixture was incubated at 94° C. for 5 min. followed by the addition of 0.5 μl Taq DNA polymerase (5 U/μl, GIBCO/BRL). PCR amplification was then carried out for 35 cycles at 94° C. for 1 min., 58° C. for 1 min., 72° C. for 1 min., followed by a final extension at 72° C. for 10 min., except where indicated otherwise. A sample of amplified DNA (10 μl) was resolved on a 1.5% agarose gel containing 0.5 μg/ml ethidium bromide and visualized and photographed under UV light. […] PCR amplification with primers specific for human β-actin were run for every cell sample, as positive controls to ensure that the isolated RNA was not degraded, and for normalization to verify that relatively equal amounts of RNA were used for the first strand cDNA synthesis reactions.
(§3) Primers specific for PDE4A, PDE4B, PDE4C, and PDE4D3 were synthesized. […] M37744; HSPDE4A4B (PDE-46), GenBank no. L20965; HSPDE4A4C (h6.1), GenBank no. U18087. […] U88712 and U88713.

For assay [1], the system named is PDE4D3 mRNA in RPMI 8392 cells. Nature of the assay: RT-PCR amplification of PDE4 subtype transcripts in RPMI 8392 cells. To be noted: agent alone.
In assay [2] the test system is PDE4B mRNA in RPMI 8392 cells. The assay is described as above. To be noted: agent alone.
Assay [3] relates to PDE4D1 and D2 mRNA in HPBL. Nature of the assay: RT-PCR amplification of transcripts in HPBL. To be noted: 10 μg/ml PHA-P, 18 and 48 hr. As to the method:
as §1, §2, §3

The next assay deals with PDE1B1 mRNA in HPBL. As to the kind of experiment: RT-PCR amplification of transcripts in HPBL. Here is the method: as §1, §2, §3
The test system of the next assay is PDE4D3 mRNA in HPBL. As to the kind of experiment: RT-PCR amplification of transcripts in HPBL. To be noted: 10 μg/ml PHA-P, more prominent at 48 hr than 18 hr. As to the method:
as §1, §2, §3

The test system of the next assay is PDE4A mRNA in HPBL. As to the kind of experiment: RT-PCR amplification of transcripts in HPBL. To be noted: 10 μg/ml PHA-P, 18 and 48 hr. As to the method:
as §1, §2, §3

The next assay relates to isolated, quiescent HPBL. As to the kind of experiment: TUNEL assay of apoptosis, flow cytometry, quiescent HPBL. To be noted: mitogen PHA added to HPBL in culture. The text has this:
Nevertheless, the effects of AS ODNs on HPBL can still be tested by quantifying and comparing the percentage of cells undergoing apoptosis in the presence and absence of the AS ODN. Apoptosis detected by examining endonuclease-digested DNA, commonly referred to as the DNA laddering technique, has been employed and the results therefrom are set forth in FIG. 5. However, we prefer to use a TUNEL assay, an acronym for terminal deoxynucleotidyl transferase (TdT)-mediated dUTP nick end labeling, which more readily allows quantitation of the percentage of cells undergoing apoptosis. The principle of the TUNEL assay is that endonuclease digestion during apoptosis results in the formation of 3'-OH ends in the digested DNA. The digested DNA in the apoptotic cells can then be labeled with fluorescein by catalytically incorporating fluorescein-12-dUTP at the 3'-OH ends using the TdT enzyme. Fluorescence can then be quantitated by flow cytometry, using a fluorescence activated cell sorter (FACS), which would give a measure of the number of cells undergoing apoptosis. An example of the appearance of a population of fluorescein labeled apoptotic cells, as evidenced by flow cytometry, following TUNEL assay labeling of the cells, is shown in FIGS. 6A-C. Cells were then cultured for 3 days with 10 μg/ml PHA-P (Sigma), in the absence of any ODN (FIG. 6A), in the presence of 30 μM NS ODN (FIG. 6B), or in the presence of 30 μM AS ODN (FIG. 6C). Cells were then collected by centrifugation and fluorescein labeled by the TUNEL assay using the Promega Apoptosis Detection System. Flow cytometry was performed on a Beckton Dickinson FACScan by the FACS facility.
The procedure for analyzing apoptosis by the TUNEL method uses either an In Situ Cell Death Kit, Fluorescein from Boehringer Mannheim or an Apoptosis Detection System, Fluorescein from Promega and follows the protocols of the manufacturers. The data in FIGS. 6 and 7 was obtained using the manufacturer's protocol for the Apoptosis Detection System, Fluorescein from Promega. […]
(In general: A flow cytometer gives signals particle by particle.)

With `COc1ccc(C2CNC(=O)C2)cc1OC1CCCC1` (centres unmarked) [rolipram], in the assay on RPMI 8392 cells (RPMI 8392 cells, culture for 24 hr), the minimal effective concentration is at least 10 µM.
Turning to `CCCC(=O)Nc1ncnc2c1ncn2[C@@H]1O[C@@H]2COP(=O)(O)O[C@H]2[C@H]1OC(=O)CCC` [dbcAMP, dibutyryl cAMP], in the assay on PDE4 mRNA in HPBL (dbcAMP (1 mM) alone), the “PDE4 mRNA expression, compared with dbcAMP plus IBMX” value was “same effects”. For the same molecule, in [1], the “Expression of PDE4D3 mRNA, compared with dbcAMP plus IBMX” value is recorded as “reproduced”. The “Expression of PDE4B mRNA, compared with dbcAMP plus IBMX” value in assay [2] is on record as “reproduced”.
On to `CCCCOc1cc(CC2CNC(=O)N2)ccc1OC` (centres unmarked) [RO 20-1724], for which the minimal effective concentration in the assay with RPMI 8392 cells (24 h) is at least 10 µM.
Take `CC(C)Cn1c(=O)n(C)c(=O)c2[nH]cnc21` [IBMX, 1-methyl-3-isobutylxanthine]: in the assay with PDE4 mRNA in HPBL (IBMX (0.1 mM) alone), the “PDE4 mRNA expression, compared with dbcAMP plus IBMX” value was “same effects”. Moreover, the “Expression of PDE4D3 mRNA, compared with dbcAMP plus IBMX” value in assay [1] is reported as “reproduced”. Further, the “Expression of PDE4B mRNA, compared with dbcAMP plus IBMX” value in assay [2] is on record as “reproduced”.
For phytohemagglutinin [PHA], in [3], the “Expression of PDE4D1 and D2 mRNA” value was “some increase in the expression”. Besides, the “Expression of the mRNA for PDE1B1” value in the assay with PDE1B1 mRNA in HPBL (10 μg/ml PHA-P, 18 and 48 hr) was “readily apparent”. In addition, the “PDE1B1 RT-PCR cDNA fragment (≈333 nt)” value with PDE1B1 mRNA in HPBL (PHA for 3 days) is listed as “show a cDNA fragment of the predicted size”. Besides, the “Expression of PDE4D3 mRNA” value in the assay on PDE4D3 mRNA in HPBL is “huge induction”. Moreover, the “Expression of PDE4A mRNA” value with PDE4A mRNA in HPBL is on record as “striking induction”. For the same molecule, the “Spontaneous apoptosis of HPBL in culture (TUNEL)” value in the assay with isolated, quiescent HPBL is “prevented the HPBL from undergoing spontaneous apoptosis”.
